Where “and” joins values, the source holds several entries; their conditions need not be identical. Identical values can stand only once.
System: 429239-143-T-J1-PDC complex spheroid viability
Test: Anticancer human tumor 429239-143-T-J1-PDC patient-derived small cell lung carcinoma cell line growth inhibition [POLQ]
Details: for viability, T/C: stronger effect = lower value
Method: Multicellular complex tumor spheroid response to Polymerase (POL) inhibitors (novobiocin, ART-558, RP6685) in combination with a variety of drugs and investigational agents in selected tumor cell lines
The POL inhibitors (novobiocin, ART-558, and RP6685) were evaluated both individually and in combination with standard of care and investigational anticancer small molecules within a complex spheroid model of solid tumors. . Complex spheroids include a stromal component modeled by human endothelial cells (HUVEC) and fibroblasts modeled by human mesenchymal stem cells (MSCs). The concentration ranges selected for each drug and investigational agent were based upon clinically achievable concentrations if the clinical Cmax of the agent was known.
Compounds. The drugs and investigational agents: novobiocin (NSC847541), ART-558 (NSC835418), RP-6685 (NSC848927), peposertib (NSC802822), ceralasertib (NSC780249), elimusertib (NSC800525), camonsertib (NSC841442), AZD-1390 (NSC803789), olaparib (NSC753686), talazoparib (NSC767125), rucaparib (NSC756644), sotorasib (NSC818433), MRTX-1133 (NSC836407), SN-38 (NSC673596), topotecan (NSC609699), epotoside (NSC141540), doxorubicin (NSC123127), gemcitabine (NSC613327), 5-fluorouracil (NSC19893), paclitaxel (NSC125973), vemurafenib (NSC761431), MSA-2 (NSC828583), SN-011 (NSC837082), adavosertib (NSC754352), prexasertib (NSC758257), carboplatin (NSC241240) and oxaliplatin (NSC266046), were obtained from the National Cancer Institute (NCI) Developmental Therapeutics Program Chemical Repository (21). The FDA-approved anticancer drug set is available from the Developmental Therapeutics Program at https://dtp.cancer.gov/organization/dscb/obtaining/. […] The stock solutions were prepared in dimethyl sulfoxide (DMSO, Sigma-Aldrich, St. Louis, MO, cat. D2650), except for the platinum compounds which were prepared in saline (Quality Biological, Gaithersburg, MD, cat. 114-055-101), at 800-fold the tested concentration and stored at -70 degrees C prior to their use. All drugs and investigational agents were tested over a range starting from a high concentration at or near the clinical Cmax and decreasing in half-log increments. If the clinical Cmax for an agent had not been determined, the highest concentration tested was 10 microM, except for SN-38, which was tested at a high concentration of 1 microM.
Cell Culture. All cells were maintained in an incubator at 37 degrees C and 5% CO2 with 95% humidity. The PDC lines were cultured according to standard operating procedures established by the NCI PDMR (https://pdmr.cancer.gov). Table 3 of the manuscript, lists the cell lines along with the number of the three cell types plated to form the mct-spheroids and media for tumor cell growth. After thawing, all PDC lines, except 997537-175-T-J1-PDC and 415267-285-R-J2-PDC, were cultured in Matrigel-coated flasks prepared with a working solution of 1X Ham's F-12 nutrient mix, without supplementation (Thermo Fisher Scientific, cat. 11765054), 100 U/mL penicillin-streptomycin (Thermo Fisher Scientific, cat. 15140122), and 2.5% Matrigel (Corning Inc., Corning, NY, cat. 354248) for the first three passages. The two PDC lines 997537-175-T-J1-PDC and 415267-285-R-J2-PDC were cultured on uncoated flasks. The 857933-349-R-J2-PDC line was cultured in 6C/Colon 1B media containing advanced DMEM/F-12 (Thermo Fisher Scientific, cat. 12634028), 10 mM HEPES (Thermo Fisher Scientific, cat. 15630080), 1X GlutaMAX supplement (Thermo Fisher Scientific, cat. 35050061), 0.1 mg/mL primocin (InvivoGen, San Diego, CA, cat. ant-pm-2), 10% defined fetal bovine serum, heat inactivated (HyClone Laboratories Inc., Logan, UT, cat. SH30070.03HI), 50% L-WRN conditioned media (ATCC, cat. CRL-3276), 1.25 mM N-Acetyl-L-cysteine (Sigma-Aldrich, cat. A9165), 10 mM nicotinamide (Sigma-Aldrich, cat. N0636), 1X B-27 supplement (Thermo Fisher Scientific, cat. 17504044), 1X N-2 supplement (Thermo Fisher Scientific, cat. […]
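Further: luminescence signal used as surrogate measure of viable cells; spheroids exposed to compounds for seven days before readout.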
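Wherever viability, T/C is given: 100% = DMSO vehicle control viability as luminescence relative to vehicle.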

COC1C(OC(N)=O)C(O)C(Oc2ccc3c(O)c(NC(=O)c4ccc(O)c(CC=C(C)C)c4)c(=O)oc3c2C)OC1(C)C (stereo not given)
viability, T/C (compound 0.0316 µM): 99.8% [middle of 13 runs] | viability, T/C (compound 0.1 µM): 101% [middle of 13 runs] | viability, T/C (compound 0.316 µM): 100% [middle of 13 runs] | viability, T/C (compound 3.16 µM): 99.4% [middle of 13 runs] | IC50 (compound alone, run of 01/08/2024): > 10000 nM

O=C(c1cc(Cc2n[nH]c(=O)c3ccccc23)ccc1F)N1CCN(C(=O)C2CC2)CC1 + COC1C(OC(N)=O)C(O)C(Oc2ccc3c(O)c(NC(=O)c4ccc(O)c(CC=C(C)C)c4)c(=O)oc3c2C)OC1(C)C
IC50 (curve of first compound, second compound 0.0316 µM): 1940 nM | IC50 (curve of first compound, second compound 0.1 µM): 1960 nM | IC50 (curve of first compound, second compound 0.316 µM): 1700 nM | IC50 (curve of first compound, second compound 1 µM): 1970 nM | IC50 (curve of first compound, second compound 3.16 µM): 1700 nM | IC50 (curve of first compound, second compound 10 µM): 1360 nM | viability, T/C (second compound 0.0316 µM, first compound 0.0316 µM): 97.2% | viability, T/C (second compound 0.0316 µM, first compound 0.1 µM): 80.8% | viability, T/C (second compound 0.0316 µM, first compound 0.316 µM): 79.1% | viability, T/C (second compound 0.0316 µM, first compound 1 µM): 82.3% | viability, T/C (second compound 0.0316 µM, first compound 3.16 µM): 26.2% | viability, T/C (second compound 0.0316 µM, first compound 10 µM): 16.1% | viability, T/C (second compound 0.1 µM, first compound 0.0316 µM): 82.7% | viability, T/C (second compound 0.1 µM, first compound 0.1 µM): 88.6% | viability, T/C (second compound 0.1 µM, first compound 0.316 µM): 77.8% | viability, T/C (second compound 0.1 µM, first compound 1 µM): 74.3% | viability, T/C (second compound 0.1 µM, first compound 3.16 µM): 32.9% | viability, T/C (second compound 0.1 µM, first compound 10 µM): 18.2% | viability, T/C (second compound 0.316 µM, first compound 0.0316 µM): 103% | viability, T/C (second compound 0.316 µM, first compound 0.1 µM): 97.2% | viability, T/C (second compound 0.316 µM, first compound 0.316 µM): 86.8% | viability, T/C (second compound 0.316 µM, first compound 1 µM): 68.9% | viability, T/C (second compound 0.316 µM, first compound 3.16 µM): 28.9% | viability, T/C (second compound 0.316 µM, first compound 10 µM): 18.2% | viability, T/C (second compound 1 µM, first compound 0.0316 µM): 104% | viability, T/C (second compound 1 µM, first compound 0.1 µM): 87.5% | viability, T/C (second compound 1 µM, first compound 0.316 µM): 81.2% | viability, T/C (second compound 1 µM, first compound 1 µM): 78.5% | viability, T/C (second compound 1 µM, first compound 3.16 µM): 30.4% | viability, T/C (second compound 1 µM, first compound 10 µM): 17.6% | viability, T/C (second compound 3.16 µM, first compound 0.0316 µM): 97.3% | viability, T/C (second compound 3.16 µM, first compound 0.1 µM): 86.5% | viability, T/C (second compound 3.16 µM, first compound 0.316 µM): 73.8% | viability, T/C (second compound 3.16 µM, first compound 1 µM): 71.6% | viability, T/C (second compound 3.16 µM, first compound 3.16 µM): 29.2% | viability, T/C (second compound 3.16 µM, first compound 10 µM): 19% | viability, T/C (second compound 10 µM, first compound 0.0316 µM): 106% | viability, T/C (second compound 10 µM, first compound 0.1 µM): 99.6% | viability, T/C (second compound 10 µM, first compound 0.316 µM): 86.9% | viability, T/C (second compound 10 µM, first compound 1 µM): 60.7% | viability, T/C (second compound 10 µM, first compound 3.16 µM): 24.8% | viability, T/C (second compound 10 µM, first compound 10 µM): 16.4%

O=C(c1cc(Cc2n[nH]c(=O)c3ccccc23)ccc1F)N1CCN(C(=O)C2CC2)CC1
viability, T/C (compound 0.0316 µM): 95.1% and 91.7% and 93.1% | viability, T/C (compound 0.1 µM): 82.3% and 93.9% and 102% | viability, T/C (compound 0.316 µM): 68.2% and 72.8% and 97.3% | viability, T/C (compound 1 µM): 69.8% and 78% and 84.5% | viability, T/C (compound 3.16 µM): 30.4% and 29.6% and 69.6% | viability, T/C (compound 10 µM): 16.1% and 16.5% and 9.45% | IC50 (curve of compound): 1590 nM and 1930 nM and 4520 nM

CC1COCCN1c1cc(-c2ccnn2C)c2ccnc(-c3ccn[nH]3)c2n1 (stereo not given)
viability, T/C (compound 0.0316 µM): 81.5% and 81.3% and 92.4% | viability, T/C (compound 0.1 µM): 50% and 45.1% and 76.5% | viability, T/C (compound 0.316 µM): 27.3% and 28.6% and 65.2% | viability, T/C (compound 1 µM): 13.1% and 16% and 35.1% | viability, T/C (compound 3.16 µM): 10.7% and 9.53% and 5.15% | viability, T/C (compound 10 µM): 10.5% and 9.86% and 3.76% | IC50 (curve of compound): 102 nM and 88.6 nM and 527 nM

CCc1cc2c(N3CCc4c(cc(Cn5ccnc5)cc4-c4cn(C)nc4C(F)(F)F)C3=O)cc(C)nc2c(OC)n1
viability, T/C (compound 0.0316 µM): 97.3% and 95.1% and 89.2% | viability, T/C (compound 0.1 µM): 77.4% and 91.2% and 89.8% | viability, T/C (compound 0.316 µM): 63.9% and 85.3% and 90% | viability, T/C (compound 1 µM): 48% and 81.4% and 78.2% | viability, T/C (compound 3.16 µM): 42.7% and 76.8% and 69.8% | viability, T/C (compound 10 µM): 38.6% and 45.6% and 43.8% | IC50 (curve of compound): 977 nM and 8650 nM and 7620 nM

CC1COCCN1c1cc(C2(O)CC3CCC(C2)O3)c2cnn(-c3ccn[nH]3)c2n1 (stereo not given)
viability, T/C (compound 0.0316 µM): 67.2% and 61.1% and 90.8% | viability, T/C (compound 0.1 µM): 45.3% and 34.4% and 78.8% | viability, T/C (compound 0.316 µM): 17.6% and 17% and 52.5% | viability, T/C (compound 1 µM): 10.2% and 7.95% and 6.96% | viability, T/C (compound 3.16 µM): 9.58% and 7.43% and 2.96% | viability, T/C (compound 10 µM): 4.72% and 5.39% and 2.25% | IC50 (curve of compound): 77.6 nM and 51 nM and 324 nM

Source: PubChem BioAssay AID1963845 (Molecular Pharmacology Branch, DTP, NCI, 2024)
